Experimental data reported in US20110224210A1, “NOVEL BIS-AMIDES AS ANTI-MALARIAL AGENTS” (priority 2008, published 2011).

tested on: P. falciparum K1 (strain resistant to chloroquine and pyrimethamine), erythrocytic stages; test: Plasmodium falciparum in vitro assay, [3H] hypoxanthine incorporation; type: cell-based; conditions: Plasmodium falciparum, K1, P. falciparum strain K1; [3H] hypoxanthine incorporation; read-out: IC50 (nM) on K1
Method in brief: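 Chloroquine/pyrimethamine-resistant K1 erythrocytic cultures (2.5% haematocrit, 0.3% parasitaemia, hypoxanthine-free RPMI with Albumax) exposed to seven doubling dilutions at 37 °C under low O2.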

IC50 [nM] | Compound
93 | COCCN(C)C(=O)[C@H](Cc1ccccc1)N(Cc1ccccc1)C(=O)C=Cc1ccc(C)cc1 [Example 160, (S)-N-Benzyl-N-{1-[(2-methoxy-ethyl)-methyl-carbamoyl]-2-phenyl-ethyl}-3-p-tolyl-acrylamide]
49 | CCc1ccc(CN(C(=O)C=Cc2ccc(C)cc2)[C@@H](Cc2ccccc2)C(=O)N(C)CCOC)cc1 [Example 161, (S)-N-(4-Ethyl-benzyl)-N-{1-[(2-methoxy-ethyl)-methyl-carbamoyl]-2-phenyl-ethyl}-3-p-tolyl-acrylamide]
45 | COCCN(C)C(=O)[C@H](Cc1ccccc1)N(Cc1ccccn1)C(=O)C=Cc1ccc(C)cc1 [Example 162, (S)-N-{1-[(2-Methoxy-ethyl)-methyl-carbamoyl]-2-phenyl-ethyl}-N-pyridin-2-ylmethyl-3-p-tolyl-acrylamide]
37 | COCCN(C)C(=O)[C@H](Cn1cccc1)N(Cc1ccc(-c2ccccn2)cc1)C(=O)C=Cc1ccc(C(F)(F)F)cc1 [Example 163, (S)-N-{1-[(2-Methoxy-ethyl)-methyl-carbamoyl]-2-pyrrol-1-yl-ethyl}-N-(4-pyridin-2-yl-benzyl)-3-(4-trifluoromethyl-phenyl)-acrylamide]
80 | CN(C)CCN(C)C(=O)[C@H](Cc1ccccc1)N(Cc1ccc(-c2ccccn2)cc1)C(=O)C=Cc1ccc(C(F)(F)F)cc1 [Example 171, (S)-N-{1-[(2-Dimethylamino-ethyl)-methyl-carbamoyl]-2-phenyl-ethyl}-N-(4-pyridin-2-yl-benzyl)-3-(4-trifluoromethyl-phenyl)-acrylamide]
89 | CN(C(=O)[C@H](Cc1ccccc1)N(Cc1ccc(-c2ccccn2)cc1)C(=O)C=Cc1ccc(C(F)(F)F)cc1)[C@H]1CCN(Cc2ccccc2)C1 [Example 172, N-{1-[((S)-1-Benzyl-pyrrolidin-3-yl)-methyl-carbamoyl]-(S)-2-phenyl-ethyl}-N-(4-pyridin-2-yl-benzyl)-3-(4-trifluoromethyl-phenyl)-acrylamide]
52 | CN(C(=O)[C@H](Cc1ccccc1)N(Cc1ccc(-c2ccccn2)cc1)C(=O)C=Cc1ccc(C(F)(F)F)cc1)[C@@H]1CCN(Cc2ccccc2)C1 [Example 173, N-{1-[((R)-1-Benzyl-pyrrolidin-3-yl)-methyl-carbamoyl]-(S)-2-phenyl-ethyl}-N-(4-pyridin-2-yl-benzyl)-3-(4-trifluoromethyl-phenyl)-acrylamide]
430 | CN(C)CCN(Cc1ccccc1)C(=O)[C@H](Cc1ccccc1)N(Cc1ccc(-c2ccccn2)cc1)C(=O)C=Cc1ccc(C(F)(F)F)cc1 [Example 174]
88 | CN(CCO)C(=O)[C@H](Cc1ccccc1)N(Cc1ccc(N2CCOCC2)cc1)C(=O)C=Cc1ccc(C(F)(F)F)cc1 [Example 175, (S)-N-{1-[(2-Hydroxy-ethyl)-methyl-carbamoyl]-2-phenyl-ethyl}-N-(4-morpholin-4-yl-benzyl)-3-(4-trifluoromethyl-phenyl)-acrylamide]
51 | CC(=O)N1CCN(c2ccc(CN(C(=O)C=Cc3ccc(C(F)(F)F)cc3)[C@@H](Cc3ccccc3)C(=O)N(C)CCO)cc2)CC1 [Example 176, (S)-N-[4-(4-Acetyl-piperazin-1-yl)-benzyl]-N-{1-[(2-hydroxy-ethyl)-methyl-carbamoyl]-2-phenyl-ethyl}-3-(4-trifluoromethyl-phenyl)-acrylamide]
84 | COc1ccc(CN(C)C(=O)[C@H](Cc2ccccc2)N(Cc2ccc(N3CCOCC3)cc2)C(=O)C=Cc2ccc(C(F)(F)F)nc2)cc1 [Example 177, (S)-N-{1-[(4-Methoxy-benzyl)-methyl-carbamoyl]-2-phenyl-ethyl}-N-(4-morpholin-4-yl-benzyl)-3-(6-trifluoromethyl-pyridin-3-yl)-acrylamide]
10 | COCCN(C)C(=O)[C@H](Cc1ccccc1)N(Cc1ccc(N2CCN(C(C)=O)CC2)cc1)C(=O)C=Cc1ccc(C(F)(F)F)cc1 [Example 178, (S)-N-[4-(4-Acetyl-piperazin-1-yl)-benzyl]-N-{1-[(2-methoxy-ethyl)-methyl-carbamoyl]-2-phenyl-ethyl}-3-(4-trifluoromethyl-phenyl)-acrylamide]
9 | COCCN(C)C(=O)[C@H](Cc1ccccc1)N(Cc1ccc(N2CCOCC2)cc1)C(=O)C=Cc1ccc(C(F)(F)F)cc1 [Example 179, (S)-N-{1-[(2-Methoxy-ethyl)-methyl-carbamoyl]-2-phenyl-ethyl}-N-(4-morpholin-4-yl-benzyl)-3-(4-trifluoromethyl-phenyl)-acrylamide, formic acid]
38 | CC(=O)N1CCN(c2ccc(CN(C(=O)C=Cc3ccc(C(F)(F)F)cc3)[C@@H](Cc3ccccc3)C(=O)N(C)CCOc3ncccn3)cc2)CC1 [Example 180, (S)-N-[4-(4-Acetyl-piperazin-1-yl)-benzyl]-N-(1-{methyl-[2-(pyrimidin-2-yloxy)-ethyl]-carbamoyl}-2-phenyl-ethyl)-3-(4-trifluoromethyl-phenyl)-acrylamide]
10 | CC(=O)N1CCN(c2ccc(CN(C(=O)C=Cc3ccc(C(F)(F)F)cc3)[C@@H](Cc3ccccc3)C(=O)N(C)CCOCc3ccccc3)cc2)CC1 [Example 181, (S)-N-[4-(4-Acetyl-piperazin-1-yl)-benzyl]-N-{1-[(2-benzyloxy-ethyl)-methyl-carbamoyl]-2-phenyl-ethyl}-3-(4-trifluoromethyl-phenyl)-acrylamide]
18 | CN(CCOCc1ccccc1)C(=O)[C@H](Cc1ccccc1)N(Cc1ccc(N2CCOCC2)cc1)C(=O)C=Cc1ccc(C(F)(F)F)cc1 [Example 182, (S)-N-{1-[(2-Benzyloxy-ethyl)-methyl-carbamoyl]-2-phenyl-ethyl}-N-(4-morpholin-4-yl-benzyl)-3-(4-trifluoromethyl-phenyl)-acrylamide]
60 | CC(=O)N1CCN(c2ccc(CN(C(=O)C=Cc3ccc(C(F)(F)F)cc3)[C@@H](Cc3ccccc3)C(=O)N(C)CCOCc3ccc(C)cc3C)cc2)CC1 [Example 183, (S)-N-[4-(4-Acetyl-piperazin-1-yl)-benzyl]-N-(1-{[2-(2,4-dimethyl-benzyloxy)-ethyl]-methyl-carbamoyl}-2-phenyl-ethyl)-3-(4-trifluoromethyl-phenyl)-acrylamide, formic acid]
13 | COc1ccc(COCCN(C)C(=O)[C@H](Cc2ccccc2)N(Cc2ccc(N3CCN(C(C)=O)CC3)cc2)C(=O)C=Cc2ccc(C(F)(F)F)cc2)cc1F [Example 184, (S)-N-[4-(4-Acetyl-piperazin-1-yl)-benzyl]-N-(1-{[2-(3-fluoro-4-methoxy-benzyloxy)-ethyl]-methyl-carbamoyl}-2-phenyl-ethyl)-3-(4-trifluoromethyl-phenyl)-acrylamide, formic acid]
19 | CC(=O)N1CCN(c2ccc(CN(C(=O)C=Cc3ccc(C(F)(F)F)cc3)[C@@H](Cc3ccccc3)C(=O)N(C)CCOCc3cccc(C#N)c3)cc2)CC1 [Example 185, (S)-N-[4-(4-Acetyl-piperazin-1-yl)-benzyl]-N-(1-{[2-(3-cyano-benzyloxy)-ethyl]-methyl-carbamoyl}-2-phenyl-ethyl)-3-(4-trifluoromethyl-phenyl)-acrylamide, formic acid]
58 | CC(=O)N1CCN(c2ccc(CN(C(=O)C=Cc3ccc(C(F)(F)F)cc3)[C@@H](Cc3ccccc3)C(=O)N(C)CCOCc3cccc(OC(F)(F)F)c3)cc2)CC1 [Example 186, (S)-N-[4-(4-Acetyl-piperazin-1-yl)-benzyl]-N-(1-{methyl-[2-(3-trifluoromethoxy-benzyloxy)-ethyl]-carbamoyl}-2-phenyl-ethyl)-3-(4-trifluoromethyl-phenyl)-acrylamide, formic acid]
7 | COc1cccc(COCCN(C)C(=O)[C@H](Cc2ccccc2)N(Cc2ccc(N3CCN(C(C)=O)CC3)cc2)C(=O)C=Cc2ccc(C(F)(F)F)cc2)c1 [Example 187, (S)-N-[4-(4-Acetyl-piperazin-1-yl)-benzyl]-N-(1-{[2-(3-methoxy-benzyloxy)-ethyl]-methyl-carbamoyl}-2-phenyl-ethyl)-3-(4-trifluoromethyl-phenyl)-acrylamide, formic acid]
53 | CC(=O)N1CCN(c2ccc(CN(C(=O)C=Cc3ccc(C(F)(F)F)cc3)[C@@H](Cc3ccccc3)C(=O)N(C)CCOCc3ccc(OC(F)F)cc3)cc2)CC1 [Example 188, (S)-N-[4-(4-Acetyl-piperazin-1-yl)-benzyl]-N-(1-{[2-(4-difluoromethoxy-benzyloxy)-ethyl]-methyl-carbamoyl}-2-phenyl-ethyl)-3-(4-trifluoromethyl-phenyl)-acrylamide, formic acid]
9 | CC(=O)N1CCN(c2ccc(CN(C(=O)C=Cc3ccc(C(F)(F)F)cc3)[C@@H](Cc3ccccc3)C(=O)N(C)CCOCc3ccc4c(c3)nnn4C)cc2)CC1 [Example 189, (S)-N-[4-(4-Acetyl-piperazin-1-yl)-benzyl]-N-(1-{methyl-[2-(1-methyl-1H-benzotriazol-5-ylmethoxy)-ethyl]-carbamoyl}-2-phenyl-ethyl)-3-(4-trifluoromethyl-phenyl)-acrylamide, formic acid]
7 | CC(=O)N1CCN(c2ccc(CN(C(=O)C=Cc3ccc(C(F)(F)F)cc3)[C@@H](Cc3ccccc3)C(=O)N(C)CCOCc3cccnc3)cc2)CC1 [Example 190, (S)-N-[4-(4-Acetyl-piperazin-1-yl)-benzyl]-N-(1-{methyl-[2-(pyridin-3-ylmethoxy)-ethyl]-carbamoyl}-2-phenyl-ethyl)-3-(4-trifluoromethyl-phenyl)-acrylamide, formic acid]
11 | COc1cccc(COCCN(C)C(=O)[C@H](Cc2ccccc2)N(Cc2ccc(N3CCOCC3)cc2)C(=O)C=Cc2ccc(C(F)(F)F)cc2)c1 [Example 191, (S)-N-(1-{[2-(3-Methoxy-benzyloxy)-ethyl]-methyl-carbamoyl}-2-phenyl-ethyl)-N-(4-morpholin-4-yl-benzyl)-3-(4-trifluoromethyl-phenyl)-acrylamide, formic acid]
